# Patent US6476252B1, “Flavorant compositions” (Givaudan Roure (International) SA, priority 1997, dated 2002)
# What was measured:
# oral cavity = test: Expert panel evaluation in foods, beverages and consumer healthcare products; assay type: in vivo, human; conditions: for character of mayonnaise base / character of sour cream / character of vegetable dip: 500 ppm compound; for character of toothpaste base: peppermint flavored toothpaste base; for character of sour cream: regular fat sour cream; for character of vegetable dip: vegetable soup mix with regular fat sour cream
# Experimental: Mouthwash base was prepared by mixing 0.08 parts mouthwash flavor (commercially available from Givaudan Roure Flavors Ltd.), 0.5 parts Pluronic F-127, 0.5 parts polysorbate 20, 0.35 parts sodium lauryl sulfate, 5 parts glycerine, 0.015 parts sodium saccharin and 93.555 parts water. […] Toothpaste base (Opaque 13/02-5F) was flavored with peppermint flavor (Givaudan Roure peppermint flavor 10570-34) at 0.5% by weight. […] Mayonnaise base was prepared by mixing 59.8 parts whole egg, 24 parts vinegar (white, 5% acidity), 1.3 parts mustard, 2 parts sugar, 1 part salt and 219 parts vegetable oil. […] An onion dip was prepared by mixing a commercial package of onion soup mix (Lipton) with plain, regular fat sour cream and 1000 ppm of compound 9 as described and prepared according to example 9. […] 2.5 parts Maltrin M-10 (commercially available) was mixed with 0.05 parts pizza flavor (SNE Pizza Flavor 810841). 50 parts potato chips ([…]) were placed on a paper plate then microwaved for 30-60 seconds until surface oil glistened. […] A chewing gum was prepared according to methods known to those skilled in the art.
# xanthin oxidase = conditions: T. Noro et al., Chem. Pharm. Bull. (1988); cited from earlier work
# tumor = conditions: H. Itokawa et al., Planta Medica (1987); cited from earlier work
# Epstein-Barr virus = conditions: A. Kondo et al., Biosci. Biotech. Biochem. (1993); cited from earlier work
# fungi = conditions: A. M. Janssen et al., Planta Medica 1985; cited from earlier work
# [1] = S. Mitsui et al., Chem. Pharm. Bull. (1976); cited from earlier work
smiles,measurement,setting,value
"CCC(OC(C)=O)c1ccc(OC(C)=O)c(OC)c1 (racemic) [Compound 7, (rac)-acetic acid 1-(4-acetoxy-3-methoxy-phenyl)-propyl ester]",flavor of cordial base,"oral cavity; 50 Proof cordial base with cinnamon flavor 0.2% by weight, 100 ppm compound","enhanced warm /hot, pungent flavor"
same,character of mayonnaise base,oral cavity,"warm/hot, spicy and pungent character"
same,sensation imparted by mouthwash base,oral cavity; 100 ppm compound,"warm/hot, spicy and pungent sensation"
same,character of toothpaste base,oral cavity; 100 ppm compound,"warm/hot, spicy and pungent character"
same,character of sour cream,oral cavity,"warm/hot, spicy and pungent character without a lingering effect"
same,character of vegetable dip,oral cavity,"warm/hot, peppery and pungent character without any lingering effect"
"C=CC(OC(C)=O)c1ccc(OC(C)=O)cc1 (racemic) [Compound 1, (rac)-acetic acid 1-(4-acetoxy-phenyl)-allyl ester]",inhibition of xanthin oxidase,xanthin oxidase,inhibit xanthin oxidase
same,anti-tumor activity,tumor,anti-tumor activity
same,character of mayonnaise base,oral cavity,"warm/hot, spicy and pungent character"
same,sensation imparted by mouthwash base,oral cavity; 100 ppm compound,"warm/hot, spicy and pungent sensation"
same,character of toothpaste base,oral cavity; 100 ppm compound,"warm/hot, spicy and pungent character"
same,character of sour cream,oral cavity,"warm/hot, spicy and pungent character without a lingering effect"
same,character of vegetable dip,oral cavity,"warm/hot, peppery and pungent character without any lingering effect"
same,inhibition of tumor promoter-induced Epstein-Barr virus activation,Epstein-Barr virus,potent inhibitor
same,anti-fungal activity,fungi,anti-fungal activity
same,anti-ulcer activity,[1],anti-ulcer activity
"C=CCC(OC(C)=O)c1ccc(OC(C)=O)cc1 (racemic) [Compound 9, (rac)-acetic acid 1-(4-acetoxyphenyl)-3-butenyl ester]",character of mayonnaise base,oral cavity,"warm/hot, spicy and pungent character"
same,sensation imparted by mouthwash base,oral cavity; 100 ppm compound,"warm/hot, spicy and pungent sensation"
same,character of onion dip,"oral cavity; onion soup mix with regular fat sour cream, 1000 ppm compound","warm/hot, peppery and pungent character without a lingering effect"
same,character of toothpaste base,oral cavity; 100 ppm compound,"warm/hot, spicy and pungent character"
same,character of sour cream,oral cavity,"warm/hot, spicy and pungent character without a lingering effect"
same,character of vegetable dip,oral cavity,"warm/hot, peppery and pungent character without any lingering effect"
"C=CC(OC(=O)C(C)C)c1ccc(OC(=O)C(C)C)cc1 (racemic) [Compound 5, (rac)-isobutyric acid 1-(4-isobutyryloxy-phenyl)-allyl ester]",sensation imparted by mouthwash base,oral cavity; 100 ppm compound,"warm/hot, spicy and pungent sensation"
"C=CC(OC(=O)CC)c1ccc(OC(=O)CC)cc1 (racemic) [Compound 4, (rac)-propionic acid 1-(4-propionoxy-phenyl)-allyl ester]",sensation imparted by mouthwash base,oral cavity; 100 ppm compound,"warm/hot, spicy and pungent sensation"
"C=CC(OC(=O)CC)c1ccc(OC(=O)CC)c(OC)c1 (racemic) [Compound 3, (rac)-propionic acid 1-(4-propionoxy-3-methoxyphenyl)-allyl ester]",sensation imparted by mouthwash base,oral cavity; 100 ppm compound,"warm/hot, spicy and pungent sensation"
"C=CC(OC(C)=O)c1ccc(OC(C)=O)c(OC)c1 (racemic) [Compound 2, (rac)-acetic acid 1-(4-acetoxy-3-methoxphenyl)-allyl ester]",inhibition of xanthin oxidase,xanthin oxidase,inhibit xanthin oxidase
same,anti-tumor activity,tumor,anti-tumor activity
same,character of orange flavored chewing gum,"oral cavity; chewing gum, 1 g compound in the batch","warm/hot, peppery and pungent character, again without any lingering effect"
same,anti-fungal activity,fungi,anti-fungal activity
"CCC(OC(C)=O)c1ccc(OC(C)=O)cc1 (racemic) [Compound 6, (rac-)-acetic acid 1-(4-acetoxy-phenyl)-propyl ester]",character of mayonnaise base,oral cavity,"warm/hot, spicy and pungent character"
same,sensation imparted by mouthwash base,oral cavity; 100 ppm compound,"warm/hot, spicy and pungent sensation"
same,character of toothpaste base,oral cavity; 100 ppm compound,"warm/hot, spicy and pungent character"
same,character of pizza snack (potato chips),"oral cavity; potato chips with pizza flavor, dusted with 1000 ppm compound","warm/hot, peppery and pungent character"
same,character of sour cream,oral cavity,"warm/hot, spicy and pungent character without a lingering effect"
same,character of vegetable dip,oral cavity,"warm/hot, peppery and pungent character without any lingering effect"
